# Experimental data as given in US20090291971A1, “HETEROARYL ETHERS AND PROCESSES FOR THEIR PREPARATION” (Wyeth, priority 2007, published 2009).
# Experiments:
# Type in all cases: biochemical
# PI3K gamma = PI3K gamma (Homo sapiens, UniProt P48736); assay: PI3 Kinase Assay (PI3K gamma); conditions: 1 h
# Method: (§1) PI3-Kinase reactions were performed in […], pH 7, […], and 25 μM ATP, with diC8-PI(4,5)P2 (Echelon, Salt Lake City Utah) as substrate. Nunc 384 well black polypropylene fluorescent plates were used for PI3K assays. Reactions were quenched by the addition of EDTA to a final concentration of […]. Final reaction volumes were […]. For evaluation of PI 3-K inhibitors, 5 ng of enzyme and 2.5 μM of substrate was used per […] reaction volume, and inhibitor concentrations ranged from 100 μM to […]; the final level of DMSO in reactions never exceeded 2%. Reactions were allowed to proceed for one hour at 25° C. After 1 hour, GST-tagged GRP1 (general receptor for phosphoinositides) PH domain fusion protein was added to a final concentration of 100 nM, and BODIPY-TMRI(1,3,4,5)P4 (Echelon) was also added to a final concentration of 5 nM. Final sample volumes were 25 μl with a final DMSO concentration of 0.8%. Assay Plates were read on Perkin-Elmer Envision plate readers with appropriate filters for Tamra [BODIPY-TMRI(1,3,4,5)P4]. Data obtained were used to calculate enzymatic activity and enzyme inhibition by inhibitor compounds.
# PI3K alpha = PI3K alpha (Homo sapiens, UniProt P42336); assay: PI3 Kinase Assay (PI3K alpha)
# PI3K alpha, sequence (P42336 whole entry, species assumed): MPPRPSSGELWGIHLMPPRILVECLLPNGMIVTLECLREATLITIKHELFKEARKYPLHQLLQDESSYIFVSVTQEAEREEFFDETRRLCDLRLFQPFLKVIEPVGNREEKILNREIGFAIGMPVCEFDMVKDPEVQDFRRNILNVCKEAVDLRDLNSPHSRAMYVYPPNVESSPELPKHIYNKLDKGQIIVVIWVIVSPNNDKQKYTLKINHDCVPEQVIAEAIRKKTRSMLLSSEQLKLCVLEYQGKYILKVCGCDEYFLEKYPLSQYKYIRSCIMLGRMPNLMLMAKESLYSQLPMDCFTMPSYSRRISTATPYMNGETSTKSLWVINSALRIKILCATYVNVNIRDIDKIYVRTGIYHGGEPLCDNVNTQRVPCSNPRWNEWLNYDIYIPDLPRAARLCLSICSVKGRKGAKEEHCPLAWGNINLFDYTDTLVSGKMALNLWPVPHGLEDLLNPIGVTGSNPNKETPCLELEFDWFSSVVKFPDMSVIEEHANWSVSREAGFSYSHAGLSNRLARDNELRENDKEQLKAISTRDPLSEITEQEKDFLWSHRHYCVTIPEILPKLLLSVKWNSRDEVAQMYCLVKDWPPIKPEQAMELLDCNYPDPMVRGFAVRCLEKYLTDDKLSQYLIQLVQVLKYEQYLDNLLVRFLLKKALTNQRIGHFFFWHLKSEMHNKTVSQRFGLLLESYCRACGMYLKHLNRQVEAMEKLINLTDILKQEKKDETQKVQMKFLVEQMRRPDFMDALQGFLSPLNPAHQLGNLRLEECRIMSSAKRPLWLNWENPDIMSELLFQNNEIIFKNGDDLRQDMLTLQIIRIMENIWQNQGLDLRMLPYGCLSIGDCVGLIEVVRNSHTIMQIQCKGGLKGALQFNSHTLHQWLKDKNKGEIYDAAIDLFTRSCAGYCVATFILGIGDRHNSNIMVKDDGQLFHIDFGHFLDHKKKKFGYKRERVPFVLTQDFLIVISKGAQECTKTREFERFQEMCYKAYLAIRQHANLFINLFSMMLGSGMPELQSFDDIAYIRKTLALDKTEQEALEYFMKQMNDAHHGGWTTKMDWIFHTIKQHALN
# PI3K alpha, sequence (P27986 whole entry partner, species assumed): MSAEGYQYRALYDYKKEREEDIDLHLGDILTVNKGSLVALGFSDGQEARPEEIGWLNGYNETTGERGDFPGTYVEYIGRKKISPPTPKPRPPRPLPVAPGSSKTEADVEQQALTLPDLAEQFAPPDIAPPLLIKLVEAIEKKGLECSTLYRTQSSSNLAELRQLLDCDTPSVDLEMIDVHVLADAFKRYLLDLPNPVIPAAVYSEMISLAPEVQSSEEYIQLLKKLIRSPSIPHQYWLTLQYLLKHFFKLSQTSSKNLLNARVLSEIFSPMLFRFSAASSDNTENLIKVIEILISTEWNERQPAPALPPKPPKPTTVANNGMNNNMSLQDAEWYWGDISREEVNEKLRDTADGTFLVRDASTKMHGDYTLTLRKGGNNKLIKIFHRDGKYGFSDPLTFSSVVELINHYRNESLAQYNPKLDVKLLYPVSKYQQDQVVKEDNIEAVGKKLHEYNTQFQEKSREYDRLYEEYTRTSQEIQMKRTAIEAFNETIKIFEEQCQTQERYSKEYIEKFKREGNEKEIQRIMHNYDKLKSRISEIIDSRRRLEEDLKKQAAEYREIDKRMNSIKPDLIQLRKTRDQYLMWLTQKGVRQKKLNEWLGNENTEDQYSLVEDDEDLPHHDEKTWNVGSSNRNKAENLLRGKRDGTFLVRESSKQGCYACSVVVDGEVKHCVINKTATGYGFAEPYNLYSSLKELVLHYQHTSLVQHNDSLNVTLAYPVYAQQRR
# Method: as §1
# [1] = molecular target: T1, human PKCθ full length enzyme (Homo sapiens, UniProt Q04759); assay: PKC Theta IMAP Assay
# T1 construct: human PKCθ full length enzyme; purchased Panvera P2996
# T1 sequence (Q04759 whole entry): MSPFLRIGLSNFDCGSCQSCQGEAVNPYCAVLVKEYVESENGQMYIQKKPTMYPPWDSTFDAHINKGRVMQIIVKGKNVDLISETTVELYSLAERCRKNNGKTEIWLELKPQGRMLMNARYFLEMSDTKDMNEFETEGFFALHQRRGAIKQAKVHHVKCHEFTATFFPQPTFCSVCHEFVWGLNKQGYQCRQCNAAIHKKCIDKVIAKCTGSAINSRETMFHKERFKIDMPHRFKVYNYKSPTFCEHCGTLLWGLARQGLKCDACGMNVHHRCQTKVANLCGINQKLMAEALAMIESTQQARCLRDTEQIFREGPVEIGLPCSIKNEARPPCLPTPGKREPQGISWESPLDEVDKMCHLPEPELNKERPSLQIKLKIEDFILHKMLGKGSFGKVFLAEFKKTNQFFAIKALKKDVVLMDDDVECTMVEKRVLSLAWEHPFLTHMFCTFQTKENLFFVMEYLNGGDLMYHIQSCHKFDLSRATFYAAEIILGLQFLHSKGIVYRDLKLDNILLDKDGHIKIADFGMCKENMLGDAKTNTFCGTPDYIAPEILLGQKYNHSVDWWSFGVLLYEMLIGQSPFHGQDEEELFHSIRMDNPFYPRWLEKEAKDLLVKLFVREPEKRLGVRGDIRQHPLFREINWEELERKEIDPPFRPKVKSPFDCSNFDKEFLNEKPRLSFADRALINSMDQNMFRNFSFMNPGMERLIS
# Method: The materials used include the following: human PKCθ full length enzyme (Panvera Cat#P2996); substrate peptide: 5FAM-RFARKGSLRQKNV-OH (Molecular Devices, RP7032); ATP (Sigma Cat #A2383); DTT (Pierce, 20291); 5× kinase reaction buffer (Molecular Devices, R7209); 5× binding buffer A (Molecular Devices, R7282), 5× binding buffer B (Molecular Devices, R7209); IMAP Beads (Molecular Devices, R7284); and 384-well plates (Corning Costar, 3710).
# The reaction buffer was prepared by diluting the 5× stock reaction buffer and adding DTT to obtain a concentration of 3.0 mM. The binding buffer was prepared by diluting the 5× binding buffer A. A master mix solution was prepared using a 90% dilution of the reaction buffer containing 2×ATP (12 uM) and 2× peptide (200 nm). Compounds were diluted in DMSO to 20× of the maximum concentration for the IC50 measurement. 27 μl of the master mix solution for each IC50 curve was added to the first column in a 384-well plate and 3 μl of 20× compound in DMSO was added to each well. The final concentration of compound was 2× and 10% DMSO. DMSO was added to the rest of the master mix to increase the concentration to 10%. 10 μl of the master mix containing 10% DMSO was added to the rest of the wells on the plate except the 2nd column. 20 μl was transferred from the first column to the 2nd column. […] FP was measured using Envision2100 (PerkinElmer Life Sciences). […]
# Flag-IKKβ = molecular target: T2, Flag-IKKβ (Homo sapiens, UniProt O14920); assay: IKK Kinase Assay (LANCE)
# T2 construct: made in house; host or cells: SF9 insect cells (baculovirus)
# T2 sequence (O14920 1-756): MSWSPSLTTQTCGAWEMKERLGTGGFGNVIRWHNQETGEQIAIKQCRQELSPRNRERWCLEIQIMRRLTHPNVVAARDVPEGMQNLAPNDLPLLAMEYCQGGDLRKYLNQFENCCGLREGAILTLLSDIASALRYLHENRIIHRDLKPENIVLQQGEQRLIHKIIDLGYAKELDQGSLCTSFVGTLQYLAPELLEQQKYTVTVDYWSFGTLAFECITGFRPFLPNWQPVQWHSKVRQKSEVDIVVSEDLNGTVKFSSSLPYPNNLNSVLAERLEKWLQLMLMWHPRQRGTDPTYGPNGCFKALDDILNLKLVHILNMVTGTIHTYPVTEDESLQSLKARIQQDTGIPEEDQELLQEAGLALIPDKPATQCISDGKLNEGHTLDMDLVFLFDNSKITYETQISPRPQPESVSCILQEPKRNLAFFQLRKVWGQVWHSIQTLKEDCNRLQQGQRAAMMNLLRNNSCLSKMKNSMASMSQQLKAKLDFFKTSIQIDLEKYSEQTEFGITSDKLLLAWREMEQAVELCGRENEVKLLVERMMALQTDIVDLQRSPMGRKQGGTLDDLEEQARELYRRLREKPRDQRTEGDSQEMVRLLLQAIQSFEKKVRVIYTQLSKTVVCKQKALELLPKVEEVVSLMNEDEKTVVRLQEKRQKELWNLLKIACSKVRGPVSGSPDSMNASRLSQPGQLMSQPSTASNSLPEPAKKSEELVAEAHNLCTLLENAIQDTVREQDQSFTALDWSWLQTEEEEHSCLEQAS
# Text: Human IKKβ cDNA is amplified by reverse transcriptase-polymerase chain reaction from human placental RNA (CLONTECH) using primers that incorporated the FLAG-epitope at the C terminus of IKKβ. FLAG-IKKβ is inserted into the baculovirus expression plasmid pFASTBAC (Life Technologies). Following the manufacturer's protocol for the BAC-TO-BAC (Life Technologies) Baculovirus Expression System, recombinant baculoviruses expressing the IKKβ enzyme are made. Briefly, 9×10^5 SF9 cells per well of a 6-well plate are transfected with one μg of miniprep bacmid DNA using the CellFECTIN™ reagent. Virus is harvested 72 hours post transfection, and a viral titer is performed, after which a high titer viral stock (2×10^8 pfu/ml) is amplified by three to four rounds of infection. […]
# Purified Flag-IKKβ enzyme (2 nM final concentration) is typically used in the kinase reaction buffer described above supplemented with 0.0025% Brij solution (Sigma) to help stabilize the enzyme. […] 25 μL of 20 mM EDTA is added to terminate the reactions and then 100 μL of detection mixture [0.25 nM Europium labeled anti-phospho-IκBα (prepared by Wallac) and 0.25 μg/mL final concentration streptavidin-APC, Wallac] is added 30 minutes before reading the plates in a Wallac VICTOR plate reader. […]
# human TOR (FLAG-TOR) = molecular target: T3, human TOR (FLAG-TOR) (Homo sapiens, UniProt P42345); assay: mTOR Enzyme Assay (DELFIA)
# T3 construct: FLAG
# Method: The routine human TOR assays with purified enzyme were performed in 96-well plates by DELFIA format as follows. Enzymes were first diluted in kinase assay buffer (10 mM Hepes (pH 7.4), 50 mM NaCl, 50 mM β-glycerophosphate, 10 mM MnCl2, 0.5 mM DTT, 0.25 μM microcystin LR, and 100 μg/mL BSA). To each well, 12 μL of the diluted enzyme were mixed briefly with 0.5 μL test inhibitor or control vehicle dimethylsulfoxide (DMSO). The kinase reaction was initiated by adding 12.5 μL kinase assay buffer containing ATP and His6-S6K to give a final reaction volume of 25 μL containing 800 ng/mL FLAG-TOR, 100 μM ATP and 1.25 μM His6-S6K. The reaction plate was incubated for 2 hours (linear at 1-6 hours) at room temperature with gentle shaking and then terminated by adding 25 μL Stop buffer (20 mM Hepes (pH 7.4), 20 mM EDTA, 20 mM EGTA). The DELFIA detection of the phosphorylated (Thr-389) His6-S6K was performed at room temperature using a monoclonal anti-P(T389)-p70S6K antibody (1A5, Cell Signaling) labeled with Europium-N-1-ITC (Eu) (10.4 Eu per antibody, PerkinElmer). The DELFIA Assay buffer and Enhancement solution were purchased from PerkinElmer. 45 μL of the terminated kinase reaction mixture was transferred to a MaxiSorp plate (Nunc) containing 55 μL PBS. […] L of DELFIA Enhancement solution was added to each well and the plates were read in a PerkinElmer Victor model plate reader. […]
# PI3K gamma, sequence (P48736 whole entry, species assumed, the tested form may be a part): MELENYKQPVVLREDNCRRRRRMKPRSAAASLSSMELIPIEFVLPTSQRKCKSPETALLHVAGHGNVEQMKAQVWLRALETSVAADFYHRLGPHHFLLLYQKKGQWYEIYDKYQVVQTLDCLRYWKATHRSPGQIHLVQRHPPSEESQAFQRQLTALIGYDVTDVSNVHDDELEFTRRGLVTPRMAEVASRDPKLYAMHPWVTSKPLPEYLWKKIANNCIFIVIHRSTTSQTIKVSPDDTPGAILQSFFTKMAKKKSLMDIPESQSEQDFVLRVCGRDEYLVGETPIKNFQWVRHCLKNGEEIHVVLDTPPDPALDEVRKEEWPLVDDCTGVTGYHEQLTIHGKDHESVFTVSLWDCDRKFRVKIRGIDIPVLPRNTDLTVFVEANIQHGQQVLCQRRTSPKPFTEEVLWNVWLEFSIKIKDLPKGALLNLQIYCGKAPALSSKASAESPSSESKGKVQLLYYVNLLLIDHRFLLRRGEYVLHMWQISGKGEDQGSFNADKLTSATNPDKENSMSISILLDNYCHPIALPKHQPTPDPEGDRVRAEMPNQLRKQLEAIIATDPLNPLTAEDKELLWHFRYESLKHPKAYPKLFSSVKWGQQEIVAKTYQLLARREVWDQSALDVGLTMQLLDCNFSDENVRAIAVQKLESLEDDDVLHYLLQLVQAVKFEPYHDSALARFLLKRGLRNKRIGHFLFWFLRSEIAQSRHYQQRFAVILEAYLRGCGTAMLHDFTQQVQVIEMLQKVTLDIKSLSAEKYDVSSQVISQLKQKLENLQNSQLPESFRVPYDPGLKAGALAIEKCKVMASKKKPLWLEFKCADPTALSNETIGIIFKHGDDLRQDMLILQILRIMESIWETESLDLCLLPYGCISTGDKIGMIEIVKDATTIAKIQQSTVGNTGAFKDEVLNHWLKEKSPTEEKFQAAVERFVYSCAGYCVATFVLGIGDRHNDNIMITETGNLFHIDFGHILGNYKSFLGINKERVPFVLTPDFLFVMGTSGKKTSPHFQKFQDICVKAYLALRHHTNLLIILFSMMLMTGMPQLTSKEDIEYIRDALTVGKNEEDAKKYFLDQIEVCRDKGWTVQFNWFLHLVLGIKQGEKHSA
inhibition at 30 µM (PI3K gamma) [%],inhibition at 30 µM (PI3K alpha) [%],IC50 [1] [µM],inhibition at 30 µM (Flag-IKKβ) [%],inhibition at 10 µM (human TOR (FLAG-TOR)) [%],SMILES
12,56,25.9,51,–,"Cc1noc(C)c1Oc1ncnc2ccccc12 [Example 26, 3,5-Dimethyl-4-(quinazolin-4-yloxy)isoxazole]"
53,33,–,–,12,"c1ccc2c(Oc3cncnc3)ncnc2c1 [Example 31, 4-(Pyrimidin-5-yloxy)quinazoline]"
